Reference: US20260015363A1, “SUBSTITUTED PYRIMIDINE-FUSED RING INHIBITOR, METHOD FOR PREPARING SAME, AND USE THEREOF” (Suzhou Zelgen Biopharmaceuticals Co., Ltd., priority 2022, published 2026)
Counter-ions that a name gives are not always drawn.

Columns and labels:
[1] = test system: SW480 (G12V); assay: KRAS mutant cell proliferation inhibition assay (CellTiter-Glo 3D), SW480; assay type: cell-based; conditions: Homo sapiens, 168 h, SW480 (G12V) cells, 7 days
Method: (§1) Positive control: MRTX1133
(§2) • (a) The cells were thawed in T75 cell culture flasks: • (b) When 80%-90% cell confluence was achieved, the cells were passaged.
(§3) The diluted test compound was added to a 384-well cell culture plate using a nanoliter pipetting system, and replicate wells were set. An equal volume of medium was added to the positive control group; an equal volume of DMSO was added to the negative control group. The plate was centrifuged at 1000 rpm at room temperature for 1 min.
(§4) The cells were seeded into a) 384-well culture plate. An equal volume of cells was added to the negative control group, and only an equal volume of medium was added to the positive control group. The plate was centrifuged at 1000 rpm at room temperature for 1 min. The final DMSO concentration in the final compound was 0.5%. The plate was incubated in a thermostatic incubator at 37° C. with 5% CO2 for 7 days.
(§5) CellTiter-Glo® 3D was added to b) 384-well cell culture plate at 20 μL/well. The plate was shaken at 320 rpm in the dark for 20 min, and incubated at room temperature in the dark for 2 h. The luminescence values were read using an Envision multi-mode microplate reader.
(§6) The inhibition rates (IRs) of the test compounds were calculated according to the following formula: IR (%)=(1−(RLU compound−RLU blank control)/(RLU vehicle control−RLU blank control))×100%. The inhibition rates of the compounds at different concentrations were calculated in Excel, and then inhibition curves were plotted and relevant parameters including minimum inhibition rate, maximum inhibition rate and IC50 were calculated using GraphPad Prism software.

[2] = test system: AsPC-1 (G12D); assay: KRAS mutant cell proliferation inhibition assay (CellTiter-Glo 3D), AsPC-1; assay type: cell-based, human; conditions: Homo sapiens, ASPC1, 168 h, AsPC-1 (G12D) cells, 7 days
Method: as §1, §2, §3, §4, §5, §6

SMILES	IC50 [1] [nM]	IC50 [2] [nM]
CCc1c(F)ccc2cc(O)cc(-c3ncc4c(N5CCC[C@]6(CCO6)C5)nc(OC[C@@]56CCCN5C[C@@]5(CC5(F)F)C6)nc4c3F)c12 (single isomer, unassigned) [Example A-16B]	660	387
CCc1c(F)ccc2cc(O)cc(-c3ncc4c(N5CCC6(COC6)C5)nc(OC[C@@]56CCCN5C[C@@]5(CC5(F)F)C6)nc4c3F)c12 [Example A-21, 4-(2-(((1S,7a'S)-2,2-Difluorodihydro-1′H,3′H-spiro[cyclopropane-1,2′-pyrrolizin]-7a′ (5′H)-yl)methoxy)-8-fluoro-4-(2-oxa-6-azaspiro[3.4]octan-6-yl)pyrido[4,3-d]pyrimidin-7-yl)-5-ethyl-6-fluoronaphthalen-2-ol]	–	> 1000
CCc1c(F)ccc2cc(O)cc(-c3ncc4c(N(C)C5CC5)nc(OC[C@@]56CCCN5C[C@@]5(CC5(F)F)C6)nc4c3F)c12 [Example A-40, 4-(4-(Cyclopropyl(methyl)amino)-2-(((1S,7a'S)-2,2-difluorodihydro-1′H,3′ H-spiro[cyclopropane-1,2′-pyrrolizin]-7a′ (5′H)-yl)methoxy) 8-fluoropyrido[4,3-d]pyrimidin-7-yl)-5-ethyl-6-fluoronaphthalen-2-ol]	–	> 1000
CN(c1nc(OC[C@@]23CCCN2C[C@@]2(CC2(F)F)C3)nc2c(F)c(-c3cc(N)cc(Cl)c3C(F)(F)F)ncc12)C1CC1 [Example A-41, 7-(5-Amino-3-chloro-2-(trifluoromethyl)phenyl)-N-cyclopropyl-2-(((1S,7a'S)-2,2-difluorodihydro-1′H,3′H-spiro[cyclopropane-1,2′-pyrrolizin]-7a′ (5′H)-yl)methoxy)-8-fluoro-N-methylpyrido[4,3-d]pyrimidin-4-amine]	–	> 1000
CCc1c(F)ccc2cc(O)cc(-c3ncc4c(N(C)C(C)C5CC5)nc(OC[C@@]56CCCN5C[C@@]5(CC5(F)F)C6)nc4c3F)c12 (stereo partly drawn) [Example A-42, 4-(4-((1-Cyclopropylethyl)(methyl)amino)-2-(((15,7a'S)-2,2-difluorodihydro-1′H,3′H-spiro[cyclopropane-1,2′-pyrrolizin]-7a′ (5′H)-yl)methoxy)-8-fluoropyrido[4,3-d]pyrimidin-7-yl)-5-ethyl-6-fluoronaphthalen-2-ol trifluoroacetate]	–	> 1000
CCc1c(F)ccc2cc(O)cc(-c3ncc4c(N5CCOCC(F)(F)C5)nc(OC[C@@]56CCCN5C[C@@]5(CC5(F)F)C6)nc4c3F)c12 [Example A-35, 4-(4-(6,6-Difluoro-1,4-oxazepan-4-yl)-2-(((1.S,7a'S)-2,2-difluorodihydro-1′H,3′H-spiro[cyclopropane-1,2′-pyrrolizin]-7a′ (5′H)-yl)methoxy)-8-fluoropyrido[4,3-d]pyrimidin-7-yl)-5-ethyl-6-fluoronaphthalen-2-ol]	159	–
CCc1c(F)ccc2cc(O)cc(-c3ncc4c(N5CC6(CCO6)C5)nc(OC[C@@]56CCCN5C[C@@]5(CC5(F)F)C6)nc4c3F)c12 [Example A-23, 4-(2-(((1S,7a'S)-2,2-Difluorodihydro-1′H,3′H-spiro[cyclopropane-1,2′-pyrrolizin]-7a′ (5′H)-yl)methoxy)-8-fluoro-4-(1-oxa-6-azaspiro[3.4]heptan-6-yl)pyrido[4,3-d]pyrimidin-7-yl)-5-ethyl-6-fluoronaphthalen-2-ol]	–	> 1000
CCc1c(F)ccc2cc(O)cc(-c3ncc4c(N5CCOCCC5C)nc(OC[C@@]56CCCN5C[C@@]5(CC5(F)F)C6)nc4c3F)c12 (stereo partly drawn) [Example A-37, 4-(2-(((1S,7a'S)-2,2-Difluorodihydro-1′H,3′H-spiro[cyclopropane-1,2′-pyrrolizin]-7a′ (5′H)-yl)methoxy)-8-fluoro-4-(5-methyl-1,4-oxazepan-4-yl)pyrido[4,3-d]pyrimidin-7-yl)-5-ethyl-6-fluoronaphthalen-2-ol]	307	572
Nc1cc(Cl)c(C(F)(F)F)c(-c2ncc3c(N4CC5COC(C5)C4)nc(OC[C@@]45CCCN4C[C@@]4(CC4(F)F)C5)nc3c2F)c1 (stereo partly drawn) [Example A-32, 3-(4-(6-Oxa-3-azabicyclo[4.2.1]nonan-3-yl)-2-(((1S,7a'S)-2,2-difluorodihydro-1′H,3′H-spiro[cyclopropane-1,2′-pyrrolizin]-7a′ (5′H)-yl)methoxy)-8-fluoropyrido[4,3-d]pyrimidin-7-yl)-5-chloro-4-(trifluoromethyl)aniline]	336	–
CCc1c(F)ccc2cc(O)cc(-c3ncc4c(N5CCC6CCC(C5)O6)nc(OC[C@@]56CCCN5C[C@@]5(CC5(F)F)C6)nc4c3F)c12 (stereo partly drawn) [Example A-31]	651	736
CCc1c(F)ccc2cc(O)cc(-c3ncc4c(N5CCCOC6CC65)nc(OC[C@@]56CCCN5C[C@@]5(CC5(F)F)C6)nc4c3F)c12 (stereo partly drawn) [Example A-28, 4-(4-(2-Oxa-6-azabicyclo[5.1.0]octan-6-yl)-2-(((1S,7a'S)-2,2-difluorodihydro-1′H,3′ H-spiro[cyclopropane-1,2′-pyrrolizin]-7a′ (5′H)-yl)methoxy)-8-fluoropyrido[4,3-d]pyrimidin-7-yl)-5-ethyl-6-fluoronaphthalen-2-ol]	37.3	27.6
CC(C1CC1)N(C)c1nc(OC[C@@]23CCCN2C[C@@]2(CC2(F)F)C3)nc2c(F)c(-c3cc(N)cc(Cl)c3C(F)(F)F)ncc12 (stereo partly drawn) [Example A-43, 7-(5-Amino-3-chloro-2-(trifluoromethyl)phenyl)-N-(1-cyclopropylethyl)-2-(((1.S,7a'S)-2,2-difluorodihydro-1′H,3′H-spiro[cyclopropane-1,2′-pyrrolizin]-7a′ (5′H)-yl)methoxy)-8-fluoro-N-methylpyrido[4,3-d]pyrimidin-4-amine trifluoroacetate]	–	986
CN(C)C(=O)c1cc2n(n1)CCCN(c1nc(OC[C@]34CCCN3C[C@]3(CC3(F)F)C4)nc3c1CCN(c1cccc4ccc(F)c(Cl)c14)C3)C2 [Example B-16, 5-(7-(8-Chloro-7-fluoronaphthalen-1-yl)-2-(((trans)-2,2-2,2-fluorodihydro-1′H,3′H-spiro[cyclopropane-1,2′-pyrrolizin]-7a′ (5′H)-yl)methoxy)-5,6,7,8-tetrahydropyrido[3,4-d]pyrimidin-4-yl)-N,N-dimethyl-5,6,7,8-tetrahydro-4H-pyrazolo[1,5-a][1,4]diazepine-2-carboxamide]	–	> 1000
CCc1c(F)ccc2cc(O)cc(-c3ncc4c(N5CC6COC(C6)C5)nc(OC[C@@]56CCCN5C[C@@]5(CC5(F)F)C6)nc4c3F)c12 (stereo partly drawn) [Example A-33]	168	–
CCc1c(F)ccc2cc(O)cc(-c3ncc4c(N5CCC6(CCO6)C5)nc(OC[C@@]56CCCN5C[C@@]5(CC5(F)F)C6)nc4c3F)c12 (stereo partly drawn) [Example A-22, 4-(2-(((1.S,7a'S)-2,2-Difluorodihydro-1′H,3′H-spiro[cyclopropane-1,2′-pyrrolizin]-7a′ (5′H)-yl)methoxy)-8-fluoro-4-(1-oxa-6-azaspiro[3.4]octan-6-yl)pyrido[4,3-d]pyrimidin-7-yl)-5-ethyl-6-fluoronaphthalen-2-ol]	–	> 1000
C#Cc1c(F)ccc2cc(O)cc(-c3ncc4c(N(C)[C@H]5C[C@@H]5F)nc(OC[C@@]56CCCN5C[C@@]5(CC5(F)F)C6)nc4c3F)c12 [Example A-44, 4-(2-(((15,7a'S)-2,2-Difluorodihydro-1′H,3′H-spiro[cyclopropane-1,2′-pyrrolizin]-7a′ (5′H)-yl)methoxy)-8-fluoro-4-(((trans)-2-fluorocyclopropyl)(methyl)amino)pyrido[4,3-d]pyrimidin-7-yl)-5-ethynyl-6-fluoronaphthalen-2-ol]	7.13	25.1
CCc1c(F)ccc2cc(O)cc(-c3ncc4c(N5CCOCC(F)C5)nc(OC[C@@]56CCCN5C[C@@]5(CC5(F)F)C6)nc4c3F)c12 (stereo partly drawn) [Example A-34, 4-(2-(((1S,7a'S)-2,2-Difluorodihydro-1′H,3′H-spiro[cyclopropane-1,2′-pyrrolizin]-7a′ (5′H)-yl)methoxy)-8-fluoro-4-(6-fluoro-1,4-oxazepan-4-yl)pyrido[4,3-d]pyrimidin-7-yl)-5-ethyl-6-fluoronaphthalen-2-ol]	66.7	–
CCc1c(F)ccc2cc(O)cc(-c3ncc4c(N5CCCCC(F)C5)nc(OC[C@@]56CCCN5C[C@@]5(CC5(F)F)C6)nc4c3F)c12 (stereo partly drawn) [Example A-36, 4-(2-(((1S,7a'S)-2,2-Difluorodihydro-1′H,3′H-spiro[cyclopropane-1,2′-pyrrolizin]-7a′ (5′H)-yl)methoxy)-8-fluoro-4-(3-fluoroazepan-1-yl)pyrido[4,3-d]pyrimidin-7-yl)-5-ethyl-6-fluoronaphthalen-2-ol]	102	–
CN(C)C(=O)c1cc2n(n1)CCCN(c1nc(OC[C@@]34CCCN3C[C@@]3(CC3(F)F)C4)nc3c1CCN(c1ccc(F)c4sc(N)c(C#N)c14)C3)C2 [Example B-15, 5-(7-(2-Amino-3-cyano-7-fluorobenzo[b]thiophen-4-yl)-2-(((trans)-2,2-fluorodihydro-1′H,3′H-spiro[cyclopropane-1,2′-pyrrolizin]-7a′ (5′H)-yl)methoxy)-5,6,7,8-tetrahydropyrido[3,4-d]pyrimidin-4-yl)-N,N-dimethyl-5,6,7,8-tetrahydro-4H-pyrazolo[1,5-a][1,4]diazepine-2-carboxamide]	–	> 1000
